Here are results for three compounds from US3971779A, “7-[2-(5-Amino-1,3,4-thiadiazol-2-ylthio)acetamido]cephalosporins” (American Home Products Corporation, priority 1975, dated 1976).

Assay [1] relates to Staphylococcus aureaus CHP. Kind of assay: mice infected intraperitoneally, single dose six hours post-infection, deaths and CD50. It is filed as in vivo. The settings on record: for ED50: Staphylococcus. The method, then: Mice are infected intraperitoneally with a standardized suspension of Staphylococcus aureaus CHP in 5% gastric mucin. The animals are randomized. Six hours post-infection a single dose of the compound indicated is administered by the route indicated. The animals are observed for a 30 day period and deaths are recorded daily. The CD50 for 14 and 30 days as determined by the method of Reed and Muench, American Journal of Hygiene (1938), for each compound is tabulated:
7-[2-(5-Acetylamino-1,3,4-thiadiazol-2-ylthio)acetamido]cephalosporanic acid is tested as described in Example 5.

In assay [2] the test system is Klebsiella pneumoniae 13883. Kind of assay: agar serial dilution MIC. The settings on record: Klebsiella pneumoniae, 13883, Example 4. It is filed as cell-based. The method, then:
(§1) A stock solution of 7-[2-(4,5-dihydro-5-imino-1,3,4-thiadiazol-2-ylthio)acetamido]cephalosporanic acid as the hydrobromic acid addition salt containing 2,500 μg. of the active moiety is prepared in phosphate buffer. Two fold serial dilutions are prepared with phosphate buffer. One milliliter (ml.) quantities of each dilution are incorporated in 9 ml. seen agar in sterile Petri plates. The hardened surface is innoculated with test organisms using a Steers replicating device. The plates are incubated at 35° C. for 18 hours.
(§2) The test organisms are Bacillus subtilis (BA SU) 6633; Staphylococcus aureus (ST AU) 6538P, Smith CHP, and 3-180; Mycobacterium smegmatis (MY SM) 10143; Neisseria catarrhalis (NE CA) 8193; Pseudonomas aeruginosa (PS AE) 10145; Escherichia coli (ES CO) 9637, and 920; Escherichia intermedia (ES IN) 65-1; Salmonella paratyphi (SA PA) 11737; Enterobacter aerogenes (EN AE) 13048; Klebsiella pneumoniae (KL PN) 10031; Bordetella bronchiseptica (BO BR) 4617; Proteus vulgaris (PR VU) 6896; and Herellea species (HE SP) 9955. These organisms are grown for 18 hours in Brain heart infusion at 35° C. Prior to use the cultures are diluted 10 fold with the infusion, except in the case of Mycobacterium. The latter is grown in Emerson's broth for 5 days at 28° C. in shaker flasks and used undiluted.
(§3) Following the procedure of Example 2 but substituting the organisms listed below the same preparation of 7-[2-(4,5-dihydro-5-imino-1,3,4-thiadiazol-2-ylthio)acetamido]cephalosporanic acid (Compound A) as used in Example 3, a third sample of the same compound, prepared as described in Example 1 (Compound B) and 7-[2-(5-acetamido-1,3,4-thiadiazol-2-ylthio)acetamido]cephalosporanic acid (Compound C) are tested to obtain the results shown: […]

A further assay concerns Shigella flexneri 12025. The assay is described as follows: agar serial dilution MIC. It is filed as cell-based. As to conditions: Shigella flexneri, 12025, Example 4; read-out: MIC. The method, then: as §1, §2, §3
The subject of assay [3] is Enterobacter agglomerans 27155. The assay is described as follows: agar serial dilution MIC. It is filed as cell-based. As to conditions: Pantoea agglomerans, 27155; Example 4; read-out: MIC. The method, then: as §1, §2, §3
Assay [4] deals with Citrobacter freundii 8090. The assay is described as follows: agar serial dilution MIC. It is filed as cell-based. The settings on record: Example 4. The method, then: as §1, §2, §3
Another assay relates to Salmonella typhi 19430. The assay is described as follows: agar serial dilution MIC. It is filed as cell-based. As to conditions: Salmonella enterica. The method, then: as §1, §2, §3
Assay [5] has as its system Klebsiella rhinoscleromatis 13884. The assay is described as follows: agar serial dilution MIC. It is filed as cell-based. The settings on record: Klebsiella pneumoniae, Example 4. On the procedure: as §1, §2, §3
For assay [6], the system named is Serratia liquefaciens 27592. Kind of assay: agar serial dilution MIC. It is filed as cell-based. As to conditions: Example 4. The method, then:
as §1, §2, §3

The test system of assay [7] is Serratia marcescens 13880. Kind of assay: agar serial dilution MIC. It is filed as cell-based. The settings on record: Example 4. On the procedure:
as §1, §2, §3

The test system of the next assay is Shigella boydii 9207. The assay is described as follows: agar serial dilution MIC. It is filed as cell-based. As to conditions: Example 4. On the procedure:
as §1, §2, §3

A further assay deals with Edwardsiella tarda 15947. Kind of assay: agar serial dilution MIC. It is filed as cell-based. As to conditions: Edwardsiella tarda, 15947; Example 4; read-out: MIC. The method, then:
as §1, §2, §3

In a further assay the test system is Klebsiella ozaenae 11296. The assay is described as follows: agar serial dilution MIC. The settings on record: Example 4, read-out: MIC. It is filed as cell-based. The method, then:
as §1, §2, §3

The subject of assay [8] is Enterobacter cloacae 13047. Kind of assay: agar serial dilution MIC. It is filed as cell-based. As to conditions: Example 4. On the procedure:
as §1, §2, §3

Assay [9] relates to Enterobacter havniae 11604. Kind of assay: agar serial dilution MIC. The settings on record: Example 4. It is filed as cell-based. On the procedure: as §1, §2, §3
Assay [10] concerns Providencia alcalifaciens 9886. Kind of assay: agar serial dilution MIC. It is filed as cell-based. The settings on record: Example 4. On the procedure: as §1, §2, §3
The subject of a further assay is Shigella sonnei 11060. The assay is described as follows: agar serial dilution MIC. As to conditions: Example 4. It is filed as cell-based. On the procedure: as §1, §2, §3
Another assay deals with Proteus mirabilis 9921. The assay is described as follows: agar serial dilution MIC. It is filed as cell-based. As to conditions: Example 4. On the procedure:
as §1, §2, §3

The subject of assay [11] is Providencia stuartii 25825. Kind of assay: agar serial dilution MIC. It is filed as cell-based. As to conditions: Example 4. The method, then: as §1, §2, §3
The subject of a further assay is Serratia rubidae 27593. The assay is described as follows: agar serial dilution MIC. The settings on record: Example 4. It is filed as cell-based. The method, then:
as §1, §2, §3

The test system of assay [12] is Salmonella cholera-suis 13312. Kind of assay: agar serial dilution MIC. It is filed as cell-based. The method, then: as §1, §2, §3
The subject of a further assay is Arizona arizonae 13314. Kind of assay: agar serial dilution MIC. It is filed as cell-based. The settings on record: Salmonella enterica, 13314, Example 4. On the procedure: as §1, §2, §3
Assay [13] concerns Citrobacter diversus 27156. The assay is described as follows: agar serial dilution MIC. It is filed as cell-based. As to conditions: Citrobacter koseri, Example 4. On the procedure:
as §1, §2, §3

Assay [14] relates to Acinetobacter calcoaceticus 9957. Kind of assay: agar serial dilution MIC. As to conditions: Example 4, read-out: MIC. It is filed as cell-based. The method, then: as §1, §2, §3
Assay [15] deals with Salmonella enteritidis 13076. Kind of assay: agar serial dilution MIC. It is filed as cell-based. The settings on record: Salmonella enterica, Example 4. The method, then: as §1, §2, §3
Setting [16] is: sc, 336 h, subcutaneous, 14 Days, single dose, mice.
The mark [17] stands for this setting: sc, 720 h, subcutaneous, 30 Days, single dose, mice.
Setting [18] is: subcutaneous, 50 mg/kg., 14 Days.
Setting [19] is: subcutaneous, 50 mg/kg., 30 Days.
Setting [20] is: subcutaneous, 100 mg/kg., 14 Days.
[21] abbreviates: subcutaneous, 100 mg/kg., 30 Days.
[22] abbreviates: subcutaneous, 200 mg/kg., 14 Days.
[23] abbreviates: subcutaneous, 200 mg/kg., 30 Days.
Setting [24] is: subcutaneous, 400 mg/kg., 14 Days.
[25] abbreviates: subcutaneous, 400 mg/kg., 30 Days.
Where [26] appears, read: subcutaneous, 14 Days, single dose, mice, 20160 min.

Usually ED50 stands for the dose that gives a 50% effect, or the effect in half of the subjects. A higher ED50 goes with a need for a large dose. The MIC is the lowest concentration found to suppress growth.

Molecules are shown by their SMILES. In brackets after ≈: the same amount, converted by molar mass. Several values for one entry are separate records, joined by “and”; a condition that tells them apart may be missing. Identical values can stand only once.

In the case of `Cc1nnc(SCC2=C(C(=O)O)N3C(=O)[C@@H](NC(=O)Cn4cnnn4)[C@H]3SC2)s1` [Cefazolin], the ED50 in [1] (setting [16]) came out at 6.41 mg/kg; in assay [1] (setting [17]), 7.2 mg/kg. Also, the “Deaths / Total No. Treated” value in [1] (setting [18]) is 10/10; in [1] (setting [19]) it was 10/10; in assay [1] (setting [20]), 10/10 and 8/10; in assay [1] (setting [21]) it was 10/10; in assay [1] (setting [22]), 10/10; in [1] (setting [23]), 10/10. Also, the “Deaths / Total No. Treated” value in [1] (setting [24]) was 4/10; in [1] (setting [25]), 5/10. In [1] (setting [26]), this compound gave a CD50 of 5.82 mg/kg.
Regarding `CC(=O)Nc1nnc(SCC(=O)NC2C(=O)N3C(C(=O)O)=C(COC(C)=O)CSC23)s1` (stereo not drawn) [Compound C, 7-[2-(5-acetamido-1,3,4-thiadiazol-2-ylthio)acetamido]cephalosporanic acid, reference compound], the MIC in [2] is 62.5 µg/mL (≈ 128 µM); in the assay with Shigella flexneri 12025, 15.6 µg/mL (≈ 32 µM); in assay [3], 7.81 µg/mL (≈ 16 µM); in assay [4], above 250 µg/mL; against Salmonella typhi 19430 it was 15.6 µg/mL (≈ 32 µM); in assay [5] it was above 250 µg/mL. Moreover, the MIC in [6] is above 250 µg/mL; in assay [7] it was above 250 µg/mL; with Shigella boydii 9207, 31.3 µg/mL (≈ 64.2 µM); in the assay on Edwardsiella tarda 15947, 7.81 µg/mL (≈ 16 µM); in the assay with Klebsiella ozaenae 11296, 7.81 µg/mL (≈ 16 µM); in [8] it was above 250 µg/mL. The MIC in assay [9] is 250 µg/mL (≈ 513 µM); in assay [10] it was above 250 µg/mL; against Shigella sonnei 11060, 62.5 µg/mL (≈ 128 µM); in the assay on Proteus mirabilis 9921 it was 15.6 µg/mL (≈ 32 µM); in assay [11], 250 µg/mL (≈ 513 µM); in the assay with Serratia rubidae 27593, above 250 µg/mL. Besides, the MIC was 15.6 µg/mL (≈ 32 µM) in assay [12]; 31.3 µg/mL (≈ 64.2 µM) against Arizona arizonae 13314; 15.6 µg/mL (≈ 32 µM) in assay [13]; 250 µg/mL (≈ 513 µM) in assay [14]; 31.3 µg/mL (≈ 64.2 µM) in [15]. In assay [1] (po, Example 6, mice), this compound gave an ED50 above 7.2 mg/kg. The “oral activity against the test organism” value in [1] (oral, Example 6, mice) is given as “lack of significant oral activity”.
Turning to `CCOc1ccc2ccccc2c1C(=O)N[C@@H]1C(=O)N2[C@@H]1SC(C)(C)[C@@H]2C(=O)O` [Nafcillin], the values for the ED50 in assay [1] (setting [16]) and in assay [1] (setting [17]) were 3.12 mg/kg and 3.9 mg/kg, respectively. Besides, the “Deaths / Total No. Treated” value in assay [1] (setting [18]) is 9/10 and 10/10; in assay [1] (setting [19]), 9/10 and 10/10; in assay [1] (setting [20]) it was 9/10 and 7/10; in assay [1] (setting [21]), 10/10 and 7/10; in assay [1] (setting [22]), 3/10 and 4/10; in assay [1] (setting [23]), 4/10. For the same compound, the “Deaths / Total No. Treated” value in assay [1] (setting [24]) is 3/10 and 4/10; in assay [1] (setting [25]) it was 4/10. In addition, the CD50 in assay [1] (setting [26]) was 3.41 mg/kg; in assay [1] (subcutaneous, 30 Days, single dose, mice, 43200 min) it was 3.41 mg/kg.
